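Test compounds were applied to cells in 96-well plates for 48 hours at 5 doses. The concentration for 50% growth inhibition is given as GI50.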 Activity calls are given as the source filed them. Cut-off read from the data, not from the text of the source: active = GI50 up to about 1.1 µM and inactive = higher.
Assays:
Assay in all cases: NCI tumour cell line growth inhibition, 48 h
[1] = tested on: HCT-116
[2] = tested on: K562
[3] = tested on: NCI-H522
[4] = tested on: SN12C
[5] = tested on: SF-539
[6] = tested on: U-251
[7] = tested on: UACC-257
[8] = tested on: SK-MEL-2
[9] = tested on: Malme-3M
[10] = tested on: A498
[11] = tested on: OVCAR-8
[12] = tested on: LXFL 529
[13] = tested on: SK-MEL-5
[14] = tested on: M19-MEL
[15] = tested on: RXF 393
[16] = tested on: UACC-62
[17] = tested on: LOX IMVI
[18] = tested on: HOP-92
[19] = tested on: SF-268
[20] = tested on: SNB-19
[21] = tested on: SF-295
[22] = tested on: SW-620
[23] = tested on: OVCAR-5
[24] = tested on: HCT-15
[25] = tested on: KM12
[26] = tested on: DMS-114
[27] = tested on: OVCAR-4
[28] = tested on: M14
[29] = tested on: DMS-273
[30] = tested on: SR
[31] = tested on: OVCAR-3
[32] = tested on: SNB-75
[33] = tested on: SNB-78
[34] = tested on: NCI-H226
[35] = tested on: ACHN
[36] = tested on: HT-29
[37] = tested on: UO-31
[38] = tested on: A549
[39] = tested on: HOP-62
[40] = tested on: CCRF-CEM
[41] = tested on: NCI-H23
[42] = tested on: RPMI-8226
[43] = tested on: SK-MEL-28
[44] = tested on: EKVX
[45] = tested on: HL-60
[46] = tested on: TK-10
[47] = tested on: DLD-1
[48] = tested on: IGROV-1
[49] = tested on: NCI-H460
[50] = tested on: KM-20L2
[51] = tested on: HCC 2998
[52] = tested on: XF498
[53] = tested on: MOLT-4
[54] = tested on: 786-0
[55] = tested on: COLO 205
[56] = tested on: SK-OV-3
[57] = tested on: HOP-18

## CC1=C(C(=O)NCc2ccccc2)C(c2ccc(Cl)c(Cl)c2)C(C(=O)NCc2ccccc2)=C(C)N1
[1]
  GI50: > 100 µM (inactive)
[2]
  GI50: > 100 µM (inactive)
[3]
  GI50: > 100 µM (inactive)
[4]
  GI50: > 100 µM (inactive)
[5]
  GI50: > 100 µM (inactive)
[6]
  GI50: > 100 µM (inactive)
[7]
  GI50: > 100 µM (inactive)
[8]
  GI50: > 100 µM (inactive)
[9]
  GI50: > 100 µM (inactive)
[10]
  GI50: > 100 µM (inactive)
[11]
  GI50: > 100 µM (inactive)
[12]
  GI50: > 100 µM (inactive)
[13]
  GI50: > 100 µM (inactive)
[14]
  GI50: > 100 µM (inactive)
[15]
  GI50: > 100 µM (inactive)
[16]
  GI50: > 100 µM (inactive)
[17]
  GI50: > 100 µM (inactive)
[18]
  GI50: > 100 µM (inactive)
[19]
  GI50: > 100 µM (inactive)
[20]
  GI50: > 100 µM (inactive)
[21]
  GI50: > 100 µM (inactive)
[22]
  GI50: > 100 µM (inactive)
[23]
  GI50: > 100 µM (inactive)
[24]
  GI50: > 100 µM
[25]
  GI50: > 100 µM (inactive)
[26]
  GI50: > 100 µM (inactive)
[27]
  GI50: > 100 µM (inactive)
[28]
  GI50: > 100 µM (inactive)
[29]
  GI50: > 100 µM (inactive)
[30]
  GI50: > 100 µM (inactive)
[31]
  GI50: > 100 µM (inactive)
[32]
  GI50: > 100 µM (inactive)
[33]
  GI50: > 100 µM (inactive)
[34]
  GI50: > 100 µM (inactive)
[35]
  GI50: > 100 µM (inactive)
[36]
  GI50: > 100 µM (inactive)
[37]
  GI50: > 100 µM (inactive)
[38]
  GI50: > 100 µM (inactive)
[39]
  GI50: > 100 µM (inactive)
[40]
  GI50: > 100 µM (inactive)
[41]
  GI50: > 100 µM (inactive)
[42]
  GI50: > 100 µM (inactive)
[43]
  GI50: > 100 µM (inactive)
[44]
  GI50: > 100 µM (inactive)
[45]
  GI50: > 100 µM (inactive)
[46]
  GI50: > 100 µM (inactive)
[47]
  GI50: > 100 µM (inactive)
[48]
  GI50: > 100 µM (inactive)
[49]
  GI50: > 100 µM (inactive)
[50]
  GI50: > 100 µM (inactive)
[51]
  GI50: > 100 µM (inactive)
[52]
  GI50: > 100 µM (inactive)
[53]
  GI50: > 100 µM (inactive)
[54]
  GI50: > 100 µM (inactive)

## CC(=O)Oc1ccc(Nn2c3ccccc3c3ccccc32)c(C)c1
[1]
  GI50: 35.7 µM (inactive)
[2]
  GI50: 32.1 µM (inactive)
[3]
  GI50: 19.3 µM (inactive)
[4]
  GI50: 41.5 µM (inactive)
[5]
  GI50: > 10 µM (inactive)
[6]
  GI50: 46 µM (inactive)
[7]
  GI50: 33.4 µM (inactive)
[8]
  GI50: 37 µM (inactive)
[9]
  GI50: 28.6 µM (inactive)
[11]
  GI50: 24.3 µM (inactive)
[12]
  GI50: 33.7 µM (inactive)
[55]
  GI50: 31.7 µM (inactive)
[13]
  GI50: 39.2 µM (inactive)
[14]
  GI50: 31.9 µM (inactive)
[15]
  GI50: 29.5 µM (inactive)
[16]
  GI50: 51.5 µM (inactive)
[17]
  GI50: > 10 µM (inactive)
[18]
  GI50: 24.5 µM (inactive)
[19]
  GI50: 45.9 µM (inactive)
[20]
  GI50: 78.7 µM (inactive)
[21]
  GI50: 25.8 µM (inactive)
[22]
  GI50: 25.2 µM (inactive)
[23]
  GI50: > 100 µM (inactive)
[24]
  GI50: 24.6 µM
[25]
  GI50: 36.6 µM (inactive)
[26]
  GI50: 27.1 µM (inactive)
[28]
  GI50: 29 µM (inactive)
[29]
  GI50: 19.6 µM (inactive)
[30]
  GI50: 21.7 µM (inactive)
[56]
  GI50: 40.9 µM (inactive)
[31]
  GI50: 42.6 µM (inactive)
[33]
  GI50: 39.4 µM (inactive)
[37]
  GI50: 39.1 µM (inactive)
[38]
  GI50: 56.8 µM (inactive)
[57]
  GI50: 16.7 µM (inactive)
[39]
  GI50: 36.1 µM (inactive)
[40]
  GI50: 29.8 µM (inactive)
[41]
  GI50: 38.2 µM (inactive)
[42]
  GI50: 15.7 µM (inactive)
[43]
  GI50: 67.6 µM (inactive)
[45]
  GI50: 22.3 µM (inactive)
[46]
  GI50: 39.3 µM (inactive)
[47]
  GI50: 43.9 µM (inactive)
[48]
  GI50: 23.6 µM (inactive)
[49]
  GI50: 27.7 µM (inactive)
[50]
  GI50: 29.4 µM (inactive)
[51]
  GI50: 27.7 µM (inactive)
[52]
  GI50: 27.7 µM (inactive)
[53]
  GI50: 23.4 µM (inactive)
[54]
  GI50: 20.6 µM (inactive)

— ChEMBL document CHEMBL1201862, “PubChem BioAssay data set” (2004)
